Laboratory results: the supplement of paper PMC11061612

Columns and labels:
Assay in all cases: combination Emax (second highest fraction inhibited in the dose matrix, 72 h); higher = more inhibition; extreme values may be limits of the assay
[1] = tested on: SNU-16 (Gastric Carcinoma)
Outline: (§1)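 Cell lines in DMEM/F12 or RPMI with 10% FBS were plated in 1536-well plates, held 24 hours at 37°C, 5% CO2, then given two-drug dose matrices for 72 hours (DMSO typically 0.2%). Viability was read by CellTiter-Glo 2.0 luminescence and scaled as inhibition from 0 (vehicle wells) to 1 (blank wells). Combination Emax is the second-highest inhibition in the matrix; Bliss excess is observed combination effect minus expected EA + EB − EA·EB, EA and EB being single-agent effects.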

KS-1 (Glioblastoma) = tested on: KS-1 (Glioblastoma)
Outline: as §1

[2] = tested on: HH (T-Cell Non-Hodgkin's Lymphoma)
Outline: as §1

MPP-89 (Mesothelioma) = tested on: MPP-89 (Mesothelioma)
Outline: as §1

[3] = tested on: SNU-449 (Hepatocellular Carcinoma)
Outline: as §1

[4] = tested on: HuCCT1 (Biliary Tract Carcinoma)
Outline: as §1

[5] = tested on: WSU-NHL (B-Cell Non-Hodgkin's Lymphoma)
Outline: as §1

A673 (Ewing's Sarcoma) = tested on: A673 (Ewing's Sarcoma)
Outline: as §1

[6] = tested on: SW1710 (Bladder Carcinoma)
Outline: as §1

[7] = tested on: LNZTA3WT4 (Low Grade Glioma)
Outline: as §1

[8] = tested on: NCI-H1568 (Lung Adenocarcinoma)
Outline: as §1

[9] = tested on: OE21 (Esophageal Squamous Cell Carcinoma)
Outline: as §1

[10] = tested on: HuH-7 (Hepatocellular Carcinoma)
Outline: as §1

[11] = tested on: NCI-H209 (Small Cell Lung Carcinoma)
Outline: as §1

[12] = tested on: SW1573 (Lung Adenocarcinoma)
Outline: as §1

[13] = tested on: NUGC-4 (Gastric Carcinoma)
Outline: as §1

[14] = tested on: CAL-33 (Oral Cavity Carcinoma)
Outline: as §1

NCI-H2052 (Mesothelioma) = tested on: NCI-H2052 (Mesothelioma)
Outline: as §1

[15] = tested on: BFTC-909 (Kidney Carcinoma)
Outline: as §1

[16] = tested on: LS-123 (Colorectal Carcinoma)
Outline: as §1

Row | Compound | combination Emax [1] | combination Emax (KS-1 (Glioblastoma)) | combination Emax [2] | combination Emax (MPP-89 (Mesothelioma)) | combination Emax [3] | combination Emax [4] | combination Emax [5] | combination Emax (A673 (Ewing's Sarcoma)) | combination Emax [6] | combination Emax [7] | combination Emax [8] | combination Emax [9] | combination Emax [10] | combination Emax [11] | combination Emax [12] | combination Emax [13] | combination Emax [14] | combination Emax (NCI-H2052 (Mesothelioma)) | combination Emax [15] | combination Emax [16]
1 | CN(CCO)CC[C@H](CSc1ccccc1)Nc1ccc(S(=O)(=O)NC(=O)c2ccc(N3CCC([C@@H](O)c4ccccc4-c4ccc(Cl)cc4)CC3)cc2)cc1S(=O)(=O)C(F)(F)F [AZD4320] + CC(=O)O[C@H]1C(=O)[C@@]2(C)[C@H]([C@H](OC(=O)c3ccccc3)[C@]3(O)C[C@H](OC(=O)[C@H](O)[C@@H](NC(=O)c4ccccc4)c4ccccc4)C(C)=C1C3(C)C)[C@]1(OC(C)=O)CO[C@@H]1C[C@@H]2O [Paclitaxel] (first compound max 1 µM, 7x7, partner max 3 µM) | 1 | 0.937 | 0.837 | 0.983 | 0.414 | 0.671 | 1 | 1 | 0.98 | 0.967 |  |  |  |  |  |  |  |  |  | 
2 | CN(CCO)CC[C@H](CSc1ccccc1)Nc1ccc(S(=O)(=O)NC(=O)c2ccc(N3CCC([C@@H](O)c4ccccc4-c4ccc(Cl)cc4)CC3)cc2)cc1S(=O)(=O)C(F)(F)F [AZD4320] + CCN(CCO)CCCOc1ccc2c(Nc3cc(CC(=O)Nc4cccc(F)c4)[nH]n3)ncnc2c1 [AZD2811] (first compound max 1 µM, 7x7, partner max 1 µM) | 0.747 | 0.464 | 0.348 | 0.526 | 0.154 | 0.136 | 0.785 | 1 | 0.154 | 0.122 | 0.248 | 0.111 | 0.219 | 1 | 0.62 | 0.215 | 0.853 | 0.128 | 0.514 | 
3 | CN(CCO)CC[C@H](CSc1ccccc1)Nc1ccc(S(=O)(=O)NC(=O)c2ccc(N3CCC([C@@H](O)c4ccccc4-c4ccc(Cl)cc4)CC3)cc2)cc1S(=O)(=O)C(F)(F)F [AZD4320] + C[C@@H]1COCCN1C2=NC(=NC(=C2)C3(CC3)[S@](=N)(=O)C)C4=C5C=CNC5=NC=C4 [AZD6738] (first compound max 1 µM, 7x7, partner max 10 µM) | 0.994 | 0.68 | 0.404 | 0.794 | 0.19 | 0.765 | 0.968 | 1 | 0.705 | 0.804 | 0.522 | 0.84 | 0.725 | 1 | 0.555 | 0.739 | 0.964 | 0.439 | 0.997 | 
4 | CN(CCO)CC[C@H](CSc1ccccc1)Nc1ccc(S(=O)(=O)NC(=O)c2ccc(N3CCC([C@@H](O)c4ccccc4-c4ccc(Cl)cc4)CC3)cc2)cc1S(=O)(=O)C(F)(F)F [AZD4320] + C[C@@H](Nc1cc(F)cc(F)c1)c1cc(C(=O)N(C)C)cc2c(=O)cc(N3CCOCC3)oc12 [AZD8186] (first compound max 1 µM, 7x7, partner max 3 µM) | 0.658 | 0.486 | 0.455 | 0.494 | 0.313 | 0.35 | 1 | 0.971 | 0.373 | 0.247 | 0.344 | 0.216 | 0.583 | 1 | 0.577 | 0.564 | 0.714 | 0.262 | 0.595 | 
5 | CN(CCO)CC[C@H](CSc1ccccc1)Nc1ccc(S(=O)(=O)NC(=O)c2ccc(N3CCC([C@@H](O)c4ccccc4-c4ccc(Cl)cc4)CC3)cc2)cc1S(=O)(=O)C(F)(F)F [AZD4320] + Cc1cc2ncnn2cc1Nc1ncc2c(n1)n(C1CCOCC1)c(=O)n2C [AZD7648] (first compound max 1 µM, 7x7, partner max 10 µM) | 0.3 | 0.319 | 0.265 | 0.281 | 0.166 | 0.26 | 0.86 | 0.937 | 0.131 | 0.132 | 0.22 | 0.17 | 0.279 | 1 | 0.104 | 0.329 | 0.363 | 0.245 | 0.246 | 
6 | COc1nnc2ccc(N3CCC(c4ccc(OCCN5CCN(C)C(=O)[C@H]5C)cc4)CC3)nn12 [AZD5153] + CN(CC[C@H](CSC1=CC=CC=C1)NC2=C(C=C(C=C2)S(=O)(=O)NC(=O)C3=CC=C(C=C3)N4CCC(CC4)[C@H](C5=CC=CC=C5C6=CC=C(C=C6)Cl)O)S(=O)(=O)C(F)(F)F)CCO [AZD4320] (first compound max 1 µM, 7x7, partner max 1 µM) |  |  |  |  |  |  |  |  |  |  | 0.266 | 0.739 | 0.786 | 1 | 0.61 | 0.634 | 0.343 | 0.189 | 0.71 | 
7 | Cc1cc2ncnn2cc1Nc1ncc2c(n1)n(C1CCOCC1)c(=O)n2C [AZD7648] + C=CCn1c(=O)c2cnc(Nc3ccc(N4CCN(C)CC4)cc3)nc2n1-c1cccc(C(C)(C)O)n1 [AZD1775] (first compound max 10 µM, partner max 1 µM) | 0.885 | 0.425 | 0.431 | 0.559 | 0.333 | 0.692 | 1 | 0.594 | 0.408 | 0.717 | 0.453 | 0.673 | 0.252 | 0.743 | 0.328 | 0.359 | 0.864 | 0.512 | 0.619 | 0.641
8 | Cc1cc2ncnn2cc1Nc1ncc2c(n1)n(C1CCOCC1)c(=O)n2C [AZD7648] + COc1cc([C@@H]2c3cc4c(cc3[C@@H](O[C@@H]3O[C@@H]5CO[C@@H](C)O[C@H]5[C@H](O)[C@H]3O)[C@H]3COC(=O)[C@H]23)OCO4)cc(OC)c1O [Etoposide] (first compound max 10 µM, 7x7, partner max 10 µM) | 0.794 | 0.431 | 0.141 | 0.604 | 0.296 | 0.648 | 1 | 0.855 | 0.301 | 0.794 |  |  |  |  |  |  |  |  |  | 0.884
9 | CC(=O)c1c(C)c2cnc(Nc3ccc(N4CCNCC4)cn3)nc2n(C2CCCC2)c1=O [Palbociclib] + CN(CC[C@H](CSC1=CC=CC=C1)NC2=C(C=C(C=C2)S(=O)(=O)NC(=O)C3=CC=C(C=C3)N4CCC(CC4)[C@H](C5=CC=CC=C5C6=CC=C(C=C6)Cl)O)S(=O)(=O)C(F)(F)F)CCO [AZD4320] (first compound max 10 µM, 7x7, partner max 1 µM) |  |  |  |  |  |  |  |  |  |  | 0.515 | 0.663 | 0.309 | 1 | 0.255 | 0.411 | 0.364 | 0.296 | 0.55 | 
10 | N#Cc1cnc(Nc2cc(NC[C@H]3CNCCO3)c(C(F)(F)F)cn2)cn1 [SRA737] + C=CCn1c(=O)c2cnc(Nc3ccc(N4CCN(C)CC4)cc3)nc2n1-c1cccc(C(C)(C)O)n1 [AZD1775] (first compound max 10 µM, partner max 1 µM) | 0.995 | 0.499 | 0.475 | 0.661 | 0.562 | 0.812 | 0.989 | 0.635 | 0.644 | 0.91 |  |  |  |  |  |  |  |  |  | 0.722
11 | N#Cc1cnc(Nc2cc(NC[C@H]3CNCCO3)c(C(F)(F)F)cn2)cn1 [SRA737] + CCc1c2c(nc3ccc(O)cc13)-c1cc3c(c(=O)n1C2)COC(=O)[C@]3(O)CC [SN-38] (first compound max 10 µM, 7x7, partner max 0.3 µM) | 0.995 | 0.458 | 0.452 | 0.73 | 0.704 | 0.847 | 0.994 | 0.945 | 0.676 | 0.84 |  |  |  |  |  |  |  |  |  | 0.773
12 | N#Cc1cnc(Nc2cc(NC[C@H]3CNCCO3)c(C(F)(F)F)cn2)cn1 [SRA737] + Nc1ccn([C@@H]2O[C@H](CO)[C@@H](O)C2(F)F)c(=O)n1 [Gemcitabine] (first compound max 10 µM, 7x7, partner max 0.3 µM) | 1 | 0.5 | 0.634 | 0.656 | 0.515 | 0.792 | 0.993 | 0.946 | 0.676 | 0.882 |  |  |  |  |  |  |  |  |  | 0.759
13 | N#Cc1cnc(Nc2cc(NC[C@H]3CNCCO3)c(C(F)(F)F)cn2)cn1 [SRA737] + O=c1[nH]cc(F)c(=O)[nH]1 [5-Fluorouracil] (first compound max 10 µM, 7x7, partner max 20 µM) | 0.961 | 0.281 | 0.188 | 0.424 | 0.293 | 0.839 | 0.965 | 0.402 | 0.217 | 0.815 |  |  |  |  |  |  |  |  |  | 0.414
14 | C[C@@H](c1ccc2nccn2c1)n1nnc2ncc(-c3cnn(C)c3)nc21 [Savolitinib] + CN(CC[C@H](CSC1=CC=CC=C1)NC2=C(C=C(C=C2)S(=O)(=O)NC(=O)C3=CC=C(C=C3)N4CCC(CC4)[C@H](C5=CC=CC=C5C6=CC=C(C=C6)Cl)O)S(=O)(=O)C(F)(F)F)CCO [AZD4320] (first compound max 1 µM, 7x7, partner max 1 µM) |  |  |  |  |  |  |  |  |  |  | 0.256 | 0.101 | 0.265 | 1 | 0.239 | 0.262 | 0.222 | 0.225 | 0.29 | 
